Assay results published in paper PMC5776679 (Journal of medicinal chemistry, 2016).
Like-named read-outs stand apart in the source and are kept apart here.

Assays:
[1] = system: PBMCs; assay: Cytotoxicity in uninfected PBMCs; conditions: read-out: CC50 (PBMCs), concentration required to reduce the viability of uninfected cells by 50%, triplicate
[2] = system: HIV-1; conditions: for EC50: read-out: EC50 (PBMCs) HIV-1
[3] = system: HepG2; assay: Cytotoxicity in uninfected HepG2 cells; conditions: read-out: CC50 (HepG2), concentration required to reduce the viability of uninfected cells by 50%, triplicate
[4] = system: HBV; conditions: therapeutic index at the EC50, HepG2
[5] = rats; cited from earlier work
[6] = monkeys; cited from earlier work
[7] = Stability in PBS; conditions: all examined media except human serum
[8] = in vitro; conditions: human
[9] = system: HepG2; conditions: human
[10] = phase I, preliminary data on Chimerix's website; cited from earlier work
[11] = clinical trials; cited from earlier work
[12] = therapeutic index at the EC50, PBMCs

Molecule | TI (CC50/EC50) HIV-1 [2] | EC50 [2] | TI (CC50/EC50) HBV [4] | other results
2-(Decyldisulfanyl)ethyl (2-(Decylsulfinothioyl)ethyl) ((((R)-1-(6-Amino-9H-purin-9-yl)propan-2-yl)oxy)methyl)phosphonate [13a] | >287 | 0.349 µM | >1 | CC50 [1]: > 100 µM; CC50 [3]: > 100 µM
Nc1ncnc2c1ncn2CCOCP(=O)(O)O [adefovir] | – | – | – | bioavailability [5]: 8–11%; bioavailability [6]: < 1%
CCCCCCCCCCCCCCSSCCOP(=O)(O)CO[C@H](C)Cn1cnc2c(N)ncnc21.N [12c, 2-(Tetradecyldisulfanyl)ethyl Hydrogen ((((R)-1-(6-Amino-9H-purin-9-yl)propan-2-yl)oxy)methyl)phosphonate] | – | – | >56 | TI (CC50/EC50) HIV-1 [2, 12]: 28000; fold stability increase over 12d [7]: ~2 fold
2-(Dodecyldisulfanyl)ethyl (2-(Dodecylsulfinothioyl)ethyl) ((((R)-1-(6-Amino-9H-purin-9-yl)propan-2-yl)oxy)methyl)phosphonate [13b] | >85.0 | 1.18 µM | >1 | CC50 [1]: > 100 µM; CC50 [3]: > 100 µM
CCCCCCCCCCCCSSCCOP(=O)(O)CO[C@H](C)Cn1cnc2c(N)ncnc21.N [12b, 2-(Dodecyldisulfanyl)ethyl Hydrogen ((((R)-1-(6-Amino-9H-purin-9-yl)propan-2-yl)oxy)methyl)phosphonate] | – | – | >30 | –
CC(C)OC(=O)OCOP(=O)(CO[C@H](C)Cn1cnc2c(N)ncnc21)OCOC(=O)OC(C)C.O=C(O)/C=C/C(=O)O [TDF, tenofovir disoproxil fumarate] | – | – | – | CC50 [8]: 29.2 µM; CC50 [9]: 64.5 µM
CCCCCCCCCCCCCCCCOCCCOP(=O)(O)CO[C@H](C)Cn1cnc2c(N)ncnc21 [compound 1, hexadecyloxypropyl-tenofovir, reference compound] | >5000 | – | – | tolerability [10]: well-tolerated
2-(Octadecyldisulfanyl)ethyl (2-(Octadecylsulfinothioyl)ethyl) ((((R)-1-(6-Amino-9H-purin-9-yl)propan-2-yl)oxy)methyl)-phosphonate [13e] | >76 | 0.331 µM | >1 | CC50 [1]: > 25 µM; CC50 [3]: > 25 µM
CCCCCCCCCCCCCCCCCCSSCCOP(=O)(O)CO[C@H](C)Cn1cnc2c(N)ncnc21.N [12e, 2-(Octadecyldisulfanyl)ethyl Hydrogen ((((R)-1-(6-Amino-9H-purin-9-yl)propan-2-yl)oxy)methyl)phosphonate] | – | – | >50 | –
CC(C)OC(=O)[C@H](C)N[P@](=O)(CO[C@H](C)Cn1cnc2c(N)ncnc21)Oc1ccccc1 [TAF, tenofovir-alafenamide] | – | – | – | nephrotoxicity [11]: little to no nephrotoxicity
2-(Hexadecyldisulfanyl)ethyl Octyl ((((R)-1-(6-Amino-9H-purin-9-yl)propan-2-yl)oxy)methyl)phosphonate [compound 22] | >50 | 0.911 µM | – | –
2-(Tetradecyldisulfanyl)ethyl (2-(Tetradecylsulfinothioyl)ethyl) ((((R)-1-(6-Amino-9H-purin-9-yl)propan-2-yl)oxy)methyl)-phosphonate [13c] | >529 | 0.189 µM | >1 | CC50 [1]: > 100 µM; CC50 [3]: > 100 µM
CCCCCCCCCCCCCCCCSSCCOP(=O)(O)CO[C@H](C)Cn1cnc2c(N)ncnc21.N [12d, 2-(Hexadecyldisulfanyl)ethyl Hydrogen ((((R)-1-(6-Amino-9H-purin-9-yl)propan-2-yl)oxy)methyl)phosphonate] | – | – | >1200 | –
2-(Hexadecyldisulfanyl)ethyl (2-(Hexadecylsulfinothioyl)ethyl) ((((R)-1-(6-Amino-9H-purin-9-yl)propan-2-yl)oxy)methyl)-phosphonate [13d] | 4.0 | 6.32 µM | >1 | CC50 [1]: > 25 µM; CC50 [3]: > 25 µM
C[C@H](Cn1cnc2c(N)ncnc21)OCP(=O)(O)O [TFV, Tenofovir, reference compound] | >300 | – | – | –
C[C@H](Cn1cnc2c(N)ncnc21)OCP(=O)(O)OCCSSCCO [DTE–TFV, 2-((2-Hydroxyethyl)disulfanyl)ethyl Hydrogen ((((R)-1-(6-Amino-9H-purin-9-yl)propan-2-yl)oxy)methyl)phosphonate] | >62.1 | – | >8.6 | –
C[C@H](Cn1cnc2c(N)ncnc21)OCP(=O)(O)OCCS [compound 9, 2-Mercaptoethyl Hydrogen ((((R)-1-(6-Amino-9H-purin-9-yl)-propan-2yl)oxy)methyl)phosphonate] | >5.38 | – | >2.4 | –
CCCCCCCCCCSSCCOP(=O)(O)CO[C@H](C)Cn1cnc2c(N)ncnc21.N [12a, 2-(Decyldisulfanyl)ethyl Hydrogen ((((R)-1-(6-Amino-9H-purin-9-yl)propan-2-yl)oxy)methyl)phosphonate] | – | – | >1 | TI (CC50/EC50) HIV-1 [2, 12]: >590
